# Measured values taken from patent US20260092085A1, “SYNTHETIC TRIPLEX PEPTIDE NUCLEIC ACID-BASED INHIBITORS FOR CANCER THERAPY” (University of Connecticut, priority 2022, published 2026).
# {RR} = two arginine residues at the PNA terminus
# What was measured:
# SUDHL-2 tumors = experiment: Tumor growth in SUDHL-2 derived xenograft; type: in vivo, NSG mice; conditions: SUDHL-2 xenograft, intratumoral, compared to Scr-γtcPNA-155 and PNA-155 control
# Description: Data represented as mean±standard error mean (SEM). Scr-γtcPNA-155 (n=4), PNA-155 (n=5), γtcPNA-155 (n=5), *p<0.05, **p<0.01, ***p<0.001, ****p<0.0001. Multiple t-tests one per row was used for statistical analysis.
# For SUDHL-2 xenografts, 1×10^7 SUDHL-2 cells suspended in RPMI-1640 medium were injected subcutaneously in the right and left flank of 6-week-old NSG mice. The mice developed a small bump in 2-3 weeks. When the tumor volume reached 100-200 mm^3, the mice were randomly allocated to the treatment group (n=5 per group).
# (§1) Further, we corroborated our results in the SUDHL-2 derived xenograft mouse model. We injected the SUDHL-2 cells in the right and left flank of mice. After 14-21 days, when the tumor volume reached 100-200 mm3, the mice were randomized into three treatment groups based on uniform tumor volume distribution in each group. […] (FIG. 27)
# [1] = system: miR-155 associated tumor suppressor genes; experiment: Gene expression of miR-155 downstream tumor suppressor genes in SUDHL-2 cells; type: cell-based; conditions: SUDHL-2, in comparison to Scr-γtcPNA-155 and PNA-155
# Description: Data is normalized with average GAPDH control (n=3), and represented as mean±SEM, **p<0.01. Unpaired two tailed t-test was used for statistical analysis and the analysis was performed relative to Scr-gtcPNA-155.
# Similarly, 400,000 SUDHL-2 cells were seeded in a 12 well plate and treated with 500 nM Scr gamma tcPNA-155, PNA-155 and gamma tcPNA-155 for 48 hrs in an incubator (37° C. and 5% CO2). The RNA was extracted and the samples for gene expression were prepared in the same manner as described above.
# miR-155 downstream genes = experiment: Downstream gene expression and protein levels in U2932 tumor samples; type: in vivo, NSG mice; conditions: U2932 xenograft
# Description: FIGS. 22A-D show in vivo gene expression and protein level analysis. (22A) miR-155 gene expression levels in U2932 tumor samples after in vivo treatment with indicated PNAs. Data was normalized with average control U6 (n=4, data represented as mean±standard error mean). ***p<0.001 (22B) Gene expression level of downstream target genes of miR-155: MCL1 in U2932 tumor samples after treatment with total 3 mg kg-1 dose of Scr-γtcPNA-155, PNA-155, γPNA-155 and γtcPNA-155 and normalized with average control GAPDH (n=3, data represented as mean±SEM), unpaired two-tailed t-test was performed for analysis). *p<0.05, **p<0.01 (22C) Representative western blot of Mcl-1 protein and its quantification (n=3 technical replicate) in U2932 tumor samples treated with total 3 mg kg-1 dose of Scr-γtcPNA-155, PNA-155 and γtcPNA-155. Data is represented as mean±SEM and unpaired two-tailed t-test was performed for analysis. *p<0.05. The relative protein levels were determined from the band intensity using ImageJ software and normalized relative to loading control and treatment control. (22D) Gene expression level of tumor suppressor proteins (FOXO3A, CUX1, SOCS1, CSF1R, JARID2, SHIP1, PICALM, PDCD4, BACH1, CASP3) in U2932 tumor samples after treatment with total 3 mg kg-1 dose of Scr-γtcPNA-155, PNA-155, γPNA-155 and γtcPNA-155 and normalized with average control GAPDH (n=3, data represented as mean±SEM, unpaired two-tailed t-test was performed for statistical analysis). *p<0.05, **p<0.01.
# Data is represented as mean±SEM and unpaired t-test was used for statistical analysis *p<0.05. The relative protein levels were determined from the band intensity using ImageJ software and normalized relative to loading control and treatment control.
# Data is represented as mean±SEM and unpaired t-test was used for statistical analysis.
# Data is represented as mean±SEM and unpaired t-test was used for statistical analysis. The relative protein levels were determined from the band intensity using ImageJ software and normalized relative to loading control and treatment control.
# RNA and Protein extraction from tumor samples: The mice were injected intra-tumorally with 1 mg kg-1 dose of PNA-155, γtcPNA-155, γPNA-155, Scr-γtcPNA-155 or were untreated. The injections were repeated two additional times after 1 week each. The length, breadth, and depth of the tumors were measured daily using a vernier caliper. The mice were euthanized when the tumor volumes reached 2000 mm^3. The resected tumor sections were finely minced using a sterile blade and suspended in dissociation media (4 ml) comprising of RPMI-1640, 1.2 mg/ml dispase, and 0.5 mg/ml collagenase for 90 mins at 500 rpm at 37° C. The dissociated tumors were washed with buffer saline at 2500 rpm (4 mins) at 4° C. and then suspended in 0.25% trypsin for 4 mins at room temperature. RPMI 1640 media was added to the trypsinized tumor mass, and the cells were passed through a 70 um filter. The cells were centrifuged at 2500 rpm for 4 mins at 4° C. The cell pellet was then suspended in 1×RBC lysis buffer (Sigma) and incubated on ice for 10 mins. PBS was added to the cells and the cells were passed through a 40 um filter. The cells were centrifuged at 2500 rpm for 4 mins at 4° C. The cell pellet was resuspended in 0.5% BSA in PBS. The mouse cells were removed from the tumor cells using a mouse cell depletion kit (Miltenyi Biotec) according to the manufacturer's protocol. The enriched tumor cells from each tumor sample were divided into two fractions. RNA for gene expression analysis was extracted from one tumor fraction by the same procedure as mentioned earlier. The protein for western blot analysis was extracted from the second fraction using the method described above.
# miR-155 = miR-155 gene expression in SUDHL-2 xenograft tumors; set-up: species or system NSG mice; conditions: SUDHL-2 xenograft after in vivo treatment
# Description: Data normalized with average control U6 (n=4) and represented as mean±standard error mean. Unpaired t test was used for statistical analysis. Further statistical analysis was performed relative to Scr-γtcPNA-155. **p<0.01, ***p<0.001.
# as §1
Substance,tumor growth (SUDHL-2 tumors),upregulation of miR-155 associated tumor suppressor genes [1],upregulation of tumor suppressor genes in tumors (miR-155 downstream genes; intratumoral),"decrease in MCL1 mRNA levels in tumors (miR-155 downstream genes; total 3 mg kg-1, compared to PNA-155 treated group)",increase in Caspase-3 protein levels in tumors (miR-155 downstream genes; versus Scr-γtcPNA-155-treated tumors),Mcl-1 protein level in tumors (miR-155 downstream genes; western blot),miR-155 expression level in tumors (miR-155)
"γtcPNA-155: serine gamma tail-clamp anti-miR-155 PNA, RR-TJJJJ-OOO-ACCCCTATCACGATTAGCATTAA-RR, SEQ ID NO: 3 (all peptide nucleic acid (PNA); serine gamma PNA, tail-clamp TJJJJ via linkers, Arg-Arg at both ends)",reduced the tumor growth,significant upregulation,significant upregulation,~50%,23%,reduction in the protein levels,
"PNA-155: conventional full-length regular PNA (23mer), RR-ACCCCTATCACGATTAGCATTAA-RR, SEQ ID NO: 1 (all peptide nucleic acid (PNA), 5' {RR}, 3' {RR}) [reference compound]",,,,,,,significantly reduces miR-155 expression level
